Results: patent publication US20040253289A1, “Natural plant compound with anti-HIV activity” (MIKONIK TECHNOLOGIES, LTD., priority 2004, published 2004)

Key:
[1] = system: HIV-1zmb high/rapid strain; experiment: Indirect immunofluorescence (IF), HIV-specific antigens on infected cells; assay type: cell-based; conditions: 3rd day after infecting
Description: (§1) In all experiments the suspensional T-lymphoblastoid cell line MT-4 was used. Passages have been carried out every three days for achieving the initial cell concentration at about 4-5·10^5 cells ml^−1.
(§2) HIV-1zmb high/rapid strain with the titer more than 6.0 log TCID50 isolated in Belarus has been used in the tests.
(§3) The tests have been carried out under therapeutic circuit when the testing compound and virus were put into the cell culture simultaneously.
The indirect immunofluorescence assay is a useful means for determining the number of cells productively infected with HIV [Johnson V. A., Byington R. E. HIV indirect immunofluorescence assay. In “Techniques in HIV Research”: Stockton Press, 1990. P. 87-91]. This assay is quantitative and can be done using living cells. The technique gives the possibility to determine HIV-specific antigens expressed on cell surface membranes of the virus-infected cells. On the 3rd day after infecting, cells have been transferred onto wells of the laminated multiwell slides and fixed by cold (4° C.) acetone. Then the samples with fixed cells were treated by HIV-1-seropositive serum and then by FTC-conjugated sheep anti-human IgG. The resulting effect was estimated via evaluation of percentage of positive cells that was calculated using fluorescent microscope and taking into account 200 cells. […]

[2] = system: HIV-1zmb high/rapid strain; experiment: In vitro anti-HIV activity in infected cell culture (overall, three tests); assay type: cell-based
Description: as §1, §2, §3

mice = conditions: acute toxicity; cited from earlier work
rats = conditions: acute toxicity; cited from earlier work
[3] = prolonged and chronic experiments; cited from earlier work
Siberian sturgeon fry = Siberian sturgeon fry treated with solution; cited from earlier work
[4] = system: human immunodeficiency virus; conditions: cited from earlier work; for inhibition of viral replication: in vitro

For `CC(C)[C@@H](C)[C@@H](O)[C@H](O)[C@@H](C)[C@H]1CC[C@H]2[C@@H]3COC(=O)[C@H]4C[C@H](O)[C@H](O)C[C@]4(C)[C@H]3CC[C@]12C` [24-epibrassinolide], the “production of viral-specific antigens on the cell's surface” value [1] was “significantly decreased production of viral-specific antigens”, the “amount of the living cells in the infected culture, higher in comparison with untreated control” value ([2]; 4-5th days after infecting) was “more than 50%” and the “average efficient concentration as anti-HIV agent in vitro” value ([2]; each test done in three repetitions, listed as EBI) was 10 ng/mL. For the same molecule, the LD50 (mice) was “more than 1000 mg·kg^−1”, the LD50 (rats) was “more than 2000 mg·kg^−1” and the postponed negative effects [3] was “no postponed negative effects”. The “increase of bacteriolytic activity of lysozyme in comparison with the control fish” value (Siberian sturgeon fry) was “up to 50%” and the “γ-globulin level higher than in the control” value (Siberian sturgeon fry) was 10 to 65%.

For `CC(C)CCC[C@@H](C)[C@H]1CC[C@H]2[C@@H]3[C@@H](O)C=C4C[C@@H](O)CC[C@]4(C)[C@H]3CC[C@]12C` [7β-hydroxycholesterol], the “inhibition of viral replication” value [4] is given as “inhibited viral replication at micromolar concentrations”.

For `C[C@H](CCCC(C)(C)O)[C@H]1CC[C@H]2[C@@H]3[C@@H](O)C=C4C[C@@H](O)CC[C@]4(C)[C@H]3CC[C@]12C` [7β,25-dihydroxycholesterol], the “antiviral concentration, fold lower than the highest concentration tested at which no toxicity was measurable” value ([4]; HIV replication in vitro) is listed as 13- to 25 fold and the “inhibition of viral replication” value [4] is listed as “inhibited viral replication at micromolar concentrations”.

In the case of `C[C@H](CCCC(C)(C)O)[C@H]1CC[C@H]2[C@@H]3CC=C4C[C@@H](O)CC[C@]4(C)[C@H]3CC[C@]12C` [25-hydroxycholesterol], the “inhibition of viral replication” value [4] is given as “inhibited viral replication at micromolar concentrations”.
